Source: patent US8008292B2, “Condensed benzamide compounds and inhibitors of vanilloid receptor subtype 1 (VR1) activity” (Japan Tobacco Inc., priority 2004, dated 2011)

Target: T1, human VR1 (Homo sapiens, UniProt Q8NER1)
T1 construct: expressed in transfected cells
Experiment: Inhibition of Ca2+ entry in cells caused by proton, in rat glioma (C6BU1) cells stably expressing human VR1 (Fura 2 fluorescence)
Assay type: cell-based
Details: inhibition of proton-induced Ca2+ entry
Procedure: The assay for evaluation of VR1 inhibition by the inventive compounds will be described below. The assay was intended to evaluate in vitro inhibition of Ca^2+ entry in cells caused by proton, one of the VR1 agonists.
Rat glioma (C6BU1) cells stably expressing human VR1 were suspended in 20 mM MES buffer (at pH 6.8, contg. 20 mM 2-morpholinoethanesulfonate (referred to as MES hereinafter), 115 mM NaCl, 5 mM KCl, 1 mM MgCl2 and 14 mM D-glucose) to make a cell density of 1×10^6 cells/mL. A fluorescent dye, Fura 2-AMsolution (DojindoCorporate, Cat. No. 343-05401) was added to the suspension to make a 5 μM concentration thereof. Further, Pluronic F-127 (Wako Pure Chemical Industries, Ltd., Cat. No. P6866) was added to make a 0.1% content thereof. Then, the suspension was incubated at 37° C. for 30 min. The cells were harvested and washed three times with 20 mM MES buffer. The cells were suspended again to make a cell density of 5×10^5 cells/mL. A 500-μL portion of the suspension was taken with a cuvette (MC MEDICAL, INC., Cat. No. SSR3121), to which 10 μL of 20 mM MES buffer containing 250 mM CaCl2 was added to incorporate Ca^2+ into the cells. At the same time, 5 μL of a test compound solution (in a range of 100 μM to 10 nM in DMSO) was also added to provide a final concentration thereof in a range of 1 μM to 0.1 nM. Alternatively, 5 μL of DMSO was added as control to provide a final concentration of 1% DMSO. The suspension was set in an intracellular ionometer (CAF-110; JASCO) 10 min after those additions. The cells were stimulated with protons by addition of 60 μL of 20 mM MES buffer at pH 1.1 to the suspension to set its pH at 5.5. The activity of the test compound was determined as a difference between the minimum of fluorescence intensity before agonist stimulation and its maximum after the stimulation. The value of IC50 was derived from percentage of inhibition by the test compound compared with the control.
In the tables, the symbol “++” indicates an IC50 value less than 100 nM and the symbol “+” indicates an IC50 value of 100 nM to 1,000 nM inclusive.

T1 sequence (Q8NER1 whole entry): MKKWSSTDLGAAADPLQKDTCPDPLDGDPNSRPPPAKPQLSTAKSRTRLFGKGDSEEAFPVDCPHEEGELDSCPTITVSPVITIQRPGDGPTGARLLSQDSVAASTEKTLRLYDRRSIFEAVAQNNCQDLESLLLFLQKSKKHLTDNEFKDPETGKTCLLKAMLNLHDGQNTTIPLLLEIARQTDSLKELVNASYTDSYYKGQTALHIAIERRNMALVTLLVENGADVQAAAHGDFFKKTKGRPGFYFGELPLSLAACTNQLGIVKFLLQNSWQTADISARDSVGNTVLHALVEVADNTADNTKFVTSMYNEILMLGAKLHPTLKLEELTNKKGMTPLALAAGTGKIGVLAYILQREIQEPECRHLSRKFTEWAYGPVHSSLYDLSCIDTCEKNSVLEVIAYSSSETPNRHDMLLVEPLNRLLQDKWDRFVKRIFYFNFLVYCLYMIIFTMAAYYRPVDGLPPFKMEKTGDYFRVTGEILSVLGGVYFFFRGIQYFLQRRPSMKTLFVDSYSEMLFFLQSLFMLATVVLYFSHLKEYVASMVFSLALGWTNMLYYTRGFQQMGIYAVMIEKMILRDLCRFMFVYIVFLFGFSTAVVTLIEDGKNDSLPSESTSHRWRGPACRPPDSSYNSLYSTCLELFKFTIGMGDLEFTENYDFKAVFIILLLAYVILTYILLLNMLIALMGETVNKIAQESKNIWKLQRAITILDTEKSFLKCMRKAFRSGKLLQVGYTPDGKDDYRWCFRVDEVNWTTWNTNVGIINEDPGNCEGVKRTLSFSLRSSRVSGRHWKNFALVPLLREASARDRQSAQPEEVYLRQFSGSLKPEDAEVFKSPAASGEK

Row | IC50 [µM] | SMILES
1 | < 0.1 | Cc1ccc(N2CCOc3c(C(=O)Nc4ccc(N(C)C)c(F)c4)cccc32)nc1 [Example 1-163]
2 | < 0.1 | COCCN(c1ccc(NC(=O)c2cccc3c2OCCN3c2ccc(C)cn2)cc1F)C(C)C [Example 1-164]
3 | < 0.1 | CC(=O)OCCN(c1ccc(NC(=O)c2cccc3c2OCCN3c2ccc(C)cn2)cc1F)C(C)C [Example 1-165]
4 | 0.1 to 1 | Cc1ccc(N2CCOc3c(C(=O)Nc4ccc(N(CCO)C(C)C)c(F)c4)cccc32)nc1 [Example 1-166]
5 | < 0.1 | CCOC(=O)C1CCN(c2ccc(NC(=O)c3cccc4c3OCCN4c3ccc(C)cn3)cc2F)CC1 [Example 1-167]
6 | < 0.1 | COC1CCN(c2ccc(NC(=O)c3cccc4c3OCCN4c3ccc(C)cn3)cc2F)CC1 [Example 1-169]
7 | 0.1 to 1 | CC(=O)OC1CCN(c2ccc(NC(=O)c3cccc4c3OCCN4c3ccc(C)cn3)cc2F)CC1 [Example 1-170]
8 | 0.1 to 1 | Cc1ccc(N2CCOc3c(C(=O)Nc4ccc(N5CCC(O)CC5)c(F)c4)cccc32)nc1 [Example 1-171]
9 | < 0.1 | COc1cc(NC(=O)c2cccc3c2OCCN3c2ccc(C)cn2)ccc1C [Example 1-172]
10 | < 0.1 | Cc1ccc(N2CCOc3c(C(=O)Nc4ccc(C)c(OCCO)c4)cccc32)nc1 [Example 1-173]
11 | < 0.1 | Cc1ccc(N2CCOc3c(C(=O)Nc4ccc(OC5CCN(C(=O)OC(C)(C)C)CC5)c(F)c4)cccc32)nc1 [Example 1-174]
12 | 0.1 to 1 | CCOC(=O)CO[C@H]1CC[C@H](NC(=O)c2cccc3c2OCCN3c2ccc(C)cn2)CC1 [Example 1-176]
13 | 0.1 to 1 | Cc1ccc(N2CCOc3c(C(=O)N[C@H]4CC[C@H](OCc5ccccc5)CC4)cccc32)nc1 [Example 1-190]
14 | < 0.1 | CCC[C@H]1CC[C@H](NC(=O)c2cccc3c2OCCN3c2ccc(C)cn2)CC1 [Example 1-192]
15 | < 0.1 | Cc1ccc(N2CCOc3c(C(=O)N[C@H]4CC[C@H](OCC(C)(C)C)CC4)cccc32)nc1 [Example 1-193]

The next lines start with the molecule.

Row | SMILES | IC50 [µM]
16 | Cc1ccc(N2CCOc3c(C(=O)N[C@H]4CC[C@H](COC(C)C)CC4)cccc32)nc1 [Example 1-183] | 0.1 to 1
17 | Cc1ccc(N2CCOc3c(C(=O)N[C@H]4CC[C@H](COC(C)(C)C)CC4)cccc32)nc1 [Example 1-186] | < 0.1
18 | Cc1ccc(N2CCOc3c(C(=O)N[C@H]4CC[C@H](OCC(C)C)CC4)cccc32)nc1 [Example 1-187] | < 0.1
19 | Cc1ccc(N2CCOc3c(C(=O)N[C@H]4CC[C@H](COCC(C)C)CC4)cccc32)nc1 [Example 1-189] | < 0.1
20 | Cc1ccc(N2CCOc3c(C(=O)N[C@H]4CC[C@H](C(C)C)CC4)cccc32)nc1 [Example 1-191] | < 0.1
21 | COCc1ccc(N2CCOc3c(C(=O)Nc4ccc(C(C)(C)C)cc4)cccc32)nc1 [Example 1-194] | < 0.1
22 | O=C(O)c1cnc(N2CCOc3c(C(=O)Nc4ccc(OC(F)(F)F)c(Cl)c4)cccc32)c(Cl)c1 [Example 1-195] | 0.1 to 1
23 | O=C(O)c1cnc(N2CCOc3c(C(=O)Nc4ccc(OC(F)(F)F)cc4)cccc32)c(Cl)c1 [Example 1-196] | 0.1 to 1
24 | CNc1ccc(N2CCOc3c(C(=O)Nc4ccc(OC(F)(F)F)cc4)cccc32)nc1 [Example 1-197] | < 0.1
25 | CCOc1ccc(N2CCOc3c(C(=O)Nc4ccc(OC(F)(F)F)cc4)cccc32)nc1 [Example 1-198] | 0.1 to 1
26 | COc1cnc(N2CCOc3c(C(=O)Nc4ccc(OC(F)(F)F)cc4)cccc32)c(Cl)c1 [Example 1-199] | < 0.1
27 | O=C(Nc1ccc(OC(F)(F)F)cc1)c1cccc2c1OCCN2c1ccc(OCCO)cn1 [Example 1-200] | 0.1 to 1
28 | O=C(Nc1ccc(OC(F)(F)F)cc1)c1cccc2c1OCCN2c1ccc(O)cn1 [Example 1-201] | 0.1 to 1
29 | COc1ccc(N2CCOc3c(C(=O)Nc4ccc(OC(F)(F)F)cc4)cccc32)nc1 [Example 1-202] | < 0.1
30 | N#Cc1cccnc1N1CCOc2c(C(=O)Nc3ccc(OC(F)(F)F)cc3)cccc21 [Example 1-203] | < 0.1
